In ChEMBL document CHEMBL4808246 (Bioorg Med Chem, 2021):

Assays:
[1] = tested on: RAW264.7; assay: Inhibition of LPS induced NO production in mouse RAW264.7 cells at 100 uM in the presence of 500 ng/mL LPS measured after 24 hrs by Griess reagent based assay relative to control; type: functional
[2] = tested on: RAW264.7; assay: Cytotoxicity against mouse RAW 264.7 cells assessed as decreased cell viability at 0.01 to 10 uM measured after 18 hrs by MTT assay; type: cell-based; details: raw264.7, 18 h, dose 0.01-10 µM
[3] = Solubility of the compound in water; type: physicochemical; details: buffer
[4] = tested on: RAW264.7; assay: Inhibition of LPS induced NO production in mouse RAW264.7 cells at 1 uM in the presence of 500 ng/mL LPS measured after 24 hrs by Griess reagent based assay relative to control; type: functional
[5] = tested on: RAW264.7; assay: Inhibition of LPS induced NO production in mouse RAW264.7 cells at 0.1 uM in the presence of 500 ng/mL LPS measured after 24 hrs by Griess reagent based assay relative to control; type: functional
[6] = tested on: Mus musculus; assay: Analgesic activity in mouse model of acetic-acid induced writhing assessed as number of writhes at 30 mg/kg, po once daily administered for 3 days prior to acetic acid injection measured after 20 mins (reference value: 29.13+/-9.36); type: functional; details: time 3 day
[7] = tested on: Mus musculus; assay: Antiinflammatory activity in mouse xylene induced ear edema model assessed as ear weight difference at 30 mg/kg, po once daily administered for 3 days prior to xylene stimulation and measured after 30 mins (reference value: 13.64 =/- 2.55 mg); type: functional; details: time 3 day
[8] = tested on: Mus musculus; assay: Antiinflammatory activity in mouse xylene induced ear edema model assessed as inhibition of auricular edemas at 30 mg/kg, po once daily administered for 3 days prior to xylene stimulation and measured after 30 mins relative to control; type: functional; details: 72 h, time 3 day
[9] = tested on: RAW264.7; assay: Inhibition of LPS induced NO production in mouse RAW264.7 cells at 0.01 uM in the presence of 500 ng/mL LPS measured after 24 hrs by Griess reagent based assay relative to control; type: functional
[10] = tested on: RAW264.7; assay: Inhibition of LPS induced NO production in mouse RAW264.7 cells at 10 uM in the presence of 500 ng/mL LPS measured after 24 hrs by Griess reagent based assay relative to control; type: functional
[11] = tested on: Mus musculus; assay: Analgesic activity in mouse model of acetic-acid induced writhing assessed as inhibition of writhing at 30 mg/kg, po once daily administered for 3 days prior to acetic acid injection measured after 20 mins relative to control; type: functional; details: 72 h, time 3 day
[12] = biological target: T1, Prostaglandin G/H synthase 1 (Ovis aries) (UniProt P05979); assay: Inhibition of ovine COX-1 assessed as production of PGE2 using arachidonic acid as a substrate preincubated for 60 mins at 10 uM followed by substrate addition and measured after 2 mins by ELISA analysis relative to control
T1 sequence (whole entry): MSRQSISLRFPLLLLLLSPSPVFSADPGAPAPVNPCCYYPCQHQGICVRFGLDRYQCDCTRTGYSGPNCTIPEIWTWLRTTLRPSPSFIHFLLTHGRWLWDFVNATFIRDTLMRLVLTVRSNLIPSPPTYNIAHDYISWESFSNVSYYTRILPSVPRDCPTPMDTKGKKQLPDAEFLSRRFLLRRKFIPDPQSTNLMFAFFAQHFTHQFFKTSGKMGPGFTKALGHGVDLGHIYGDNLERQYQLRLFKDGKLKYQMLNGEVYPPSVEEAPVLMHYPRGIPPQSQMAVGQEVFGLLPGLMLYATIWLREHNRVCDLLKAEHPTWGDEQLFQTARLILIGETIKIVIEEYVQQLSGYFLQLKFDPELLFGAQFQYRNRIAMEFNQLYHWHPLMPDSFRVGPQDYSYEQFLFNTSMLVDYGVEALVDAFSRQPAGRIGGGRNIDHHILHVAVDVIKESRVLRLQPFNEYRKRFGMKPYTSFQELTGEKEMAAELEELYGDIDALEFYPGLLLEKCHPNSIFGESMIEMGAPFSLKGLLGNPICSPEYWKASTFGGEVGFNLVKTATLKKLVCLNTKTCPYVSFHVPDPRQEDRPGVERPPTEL

[13] = biological target: T1, Prostaglandin G/H synthase 1 (Ovis aries); assay: Inhibition of ovine COX-1 assessed as production of PGE2 using arachidonic acid as a substrate preincubated for 60 mins at 100 uM followed by substrate addition and measured after 2 mins by ELISA analysis relative to control; details: time 62.0 min
[14] = Acute oral toxicity in female kunming mouse assessed as signs of gross toxicity measured once daily for 14 days; details: in vivo, time 14 day
[15] = biological target: T2, Prostaglandin G/H synthase 2 (Homo sapiens, UniProt P35354); assay: Inhibition of human recombinant COX-2 assessed as production of PGE2 using arachidonic acid as a substrate preincubated for 60 mins followed by substrate addition and measured after 2 mins by ELISA analysis
T2 sequence (P35354 whole entry): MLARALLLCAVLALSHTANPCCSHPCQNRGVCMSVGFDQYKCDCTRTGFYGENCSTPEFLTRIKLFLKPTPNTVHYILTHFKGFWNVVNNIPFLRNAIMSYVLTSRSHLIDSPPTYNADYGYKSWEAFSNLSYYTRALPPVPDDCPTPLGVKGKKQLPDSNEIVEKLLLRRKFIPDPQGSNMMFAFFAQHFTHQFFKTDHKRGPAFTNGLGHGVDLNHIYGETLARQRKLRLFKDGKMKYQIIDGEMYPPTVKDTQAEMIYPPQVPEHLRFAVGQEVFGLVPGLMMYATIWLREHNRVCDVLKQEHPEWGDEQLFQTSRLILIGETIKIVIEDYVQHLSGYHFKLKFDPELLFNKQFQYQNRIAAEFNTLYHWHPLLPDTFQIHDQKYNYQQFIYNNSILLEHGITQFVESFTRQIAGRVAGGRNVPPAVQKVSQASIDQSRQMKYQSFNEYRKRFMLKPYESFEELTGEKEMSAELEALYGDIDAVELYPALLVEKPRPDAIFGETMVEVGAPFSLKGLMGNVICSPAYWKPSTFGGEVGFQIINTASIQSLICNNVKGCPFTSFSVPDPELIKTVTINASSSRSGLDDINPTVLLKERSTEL

[16] = Selectivity index, ratio of IC50 for ovine COX-1 to IC50 for human COX-2
[17] = biological target: T1, Prostaglandin G/H synthase 1 (Ovis aries); assay: Inhibition of ovine COX-1 assessed as production of PGE2 using arachidonic acid as a substrate preincubated for 60 mins at 0.1 uM followed by substrate addition and measured after 2 mins by ELISA analysis relative to control
[18] = biological target: T3, Prostaglandin G/H synthase 1 (Ovis aries, UniProt P05979); assay: Inhibition of ovine COX-1 assessed as production of PGE2 using arachidonic acid as a substrate preincubated for 60 mins followed by substrate addition and measured after 2 mins by ELISA analysis
T3 sequence (P05979 whole entry): T1 sequence (whole entry)

[19] = biological target: T1, Prostaglandin G/H synthase 1 (Ovis aries); assay: Inhibition of ovine COX-1 assessed as production of PGE2 using arachidonic acid as a substrate preincubated for 60 mins at 1 uM followed by substrate addition and measured after 2 mins by ELISA analysis relative to control
[20] = Acute oral toxicity in female kunming mouse assessed as effect on kidney histopathology at 2000 mg/kg measured once daily for 14 days; type: organism-based; details: in vivo, 336 h, time 14 day
[21] = tested on: RAW264.7; assay: Cytotoxicity against mouse RAW 264.7 cells assessed as decreased cell viability at 100 uM measured after 18 hrs by MTT assay; type: cell-based; details: raw264.7, 18 h
[22] = Acute oral toxicity in female kunming mouse assessed as survival at 2000 mg/kg measured once daily for 14 days; type: organism-based; details: in vivo, 336 h, time 14 day
[23] = Acute oral toxicity in female kunming mouse assessed as effect on liver histopathology at 2000 mg/kg measured once daily for 14 days; type: organism-based; details: in vivo, 336 h, time 14 day

| SMILES | inhibition at 100 µM [1] [%] | Activity [2] | solubility [3] | inhibition at 1 µM [4] [%] | inhibition at 0.1 µM [5] [%] | Activity [6] | Activity [7] [mg] | inhibition in vivo at 30 mg/kg [8] [%] | inhibition at 0.01 µM [9] [%] | inhibition at 10 µM [10] [%] | inhibition in vivo at 30 mg/kg [11] [%] | inhibition [12] [%] | inhibition [13] [%] | LD50 at 336 h [14] [mg/kg] | IC50 [15] [nM] | Ratio [16] | inhibition [17] [%] | IC50 [18] [nM] | inhibition [19] [%] | Activity [20] | other results |
| --- | --- | --- | --- | --- | --- | --- | --- | --- | --- | --- | --- | --- | --- | --- | --- | --- | --- | --- | --- | --- | --- |
| Cc1ccc(-c2cc(C(F)(F)F)nn2-c2ccc(S(N)(=O)=O)cc2)cc1 [CELECOXIB] | 50.2 | 80% | Insoluble | 16.5 | 19.6 | 18.63 | 9.79 | 28.2 | 16.5 | 14.8 |  |  |  |  |  |  |  |  |  |  |  |
| Cc1ccc(-c2cc(C)n(S(=O)(=O)Oc3ccccc3)n2)cc1 | 31.6 |  | Insoluble | 19.3 | 18.1 | 14.38 | 11.57 | 15.2 | 10.5 | 21.1 | 50.7 | 72 | 70 | > 2000 | 1.1 | 455 | 34 | 500 | 55 |  |  |
| Cc1ccc(-c2cc(C)n(S(=O)(=O)Oc3ccccc3Cl)n2)cc1 | 29.4 | 80% | Insoluble | 23.8 | 23.6 | 15 | 9.96 | 27 | 12.6 | 22 | 48.5 | 26 | 33 | > 2000 | 530 | > 189 | 20 | > 100000 | 24 | Non-Toxic | Activity [21]: 80%; Activity [22]: Non-Toxic; Activity [23]: Non-Toxic |
| Cc1ccc(-c2cc(C)n(S(=O)(=O)Oc3ccc(I)cc3)n2)cc1 |  | Non-Toxic | Insoluble |  |  | 24.13 | 9.96 | 27 |  |  | 17.2 | 41 | 48 |  | 9.2 | 10500 | 17 | 96600 | 35 | Non-Toxic | Activity [21]: 40%; Activity [22]: Non-Toxic; Activity [23]: Non-Toxic |
